# Source: patent US20230312646A1, “ANTIBACTERIAL PEPTIDES” (priority 2020, published 2023)
# Numbered stars: 1 amine (or outer) side, 2 acyl side, 3 side chain; on linkers, the order of the positions; unused ones are H or OH. Square brackets hold non-standard residues; d marks the D form. Peptide text beside a SMILES is read from it. * marks the point of attachment. ξ: configuration not given here. Acryloyl(3-(3-pyridyl),E) = O=C(/C=C/c1cccnc1)*; Phe(3,4-Cl2) = N[C@@H](Cc1ccc(Cl)c(Cl)c1)C(=O)O; Phe(3,4-F2) = N[C@@H](Cc1ccc(F)c(F)c1)C(=O)O; Oic = O=C(O)[C@@H]1C[C@@H]2CCCC[C@@H]2N1; Cinnamoyl(4-F) = O=C(/C=C/c1ccc(F)cc1)*; NH(4-MeO-phenyl) = COc1ccc(N*)cc1; Cha = N[C@@H](CC1CCCCC1)C(=O)O; NMeD = CN[C@@H](CC(=O)O)C(=O)O; ξOic = O=C(O)C1CC2CCCCC2N1; X6 = O=C(/C=C/c1ccccc1)*; CO = O=C([*:1])[*:2]
# Biological target: T1, Escherichia coli SC (^EcSC) (Escherichia coli, UniProt P0A988)
# T1 construct: His tag (inferred from the pET15b vector and Ni-NTA purification) (N); made in house; host or cells: E. coli
# Assay: biochemical
# Type: binding
# Details: for ΔG (kcal mol^-1): ITC at 25° C.; for Kd: Kd (nM), ITC at 298.15 K (25° C.); for kon: read-out: kon (M^-1 s^-1)
# Experimental: The procedure has been described previously (Wolff, P.; Oliéric, V.; Briand, J. P.; Chaloin, O.; Dejaegere, A.; Dumas, P.; Ennifar, E.; Guichard, G.; Wagner, J.; Burnouf, D. Y., Structure-Based Design of Short Peptide Ligands Binding onto the E. coli Processivity Ring. J. Med. Chem. 2011, 54 (13), 4627-4637). Briefly, E.coli cells were transformed with plasmids pET15b containing the dnaN gene from E. coli and were grown in LB at 37° C. to OD 0.5, then induced by IPTG (0.1 mM) at 28° C. overnight. dnaN proteins fractions were first enriched on a Ni-NTA column, eluted with a histidine step (300 mM) and further purified on a Source Q column in buffer containing 20 mM Tris HCI pH 7.5, 0.5 mM EDTA and 10% (v/v) glycerol, using a gradient from 0 to 0.5 M NaCl. After a final ultracentrifugation (45 K, 1 h, 20° C.), soluble proteins were concentrated on a Centricon 30 K (Millipore) in the same buffer and stored at 4° C. in 2 M ammonium sulfate. Buffer exchange was performed on Centrikon 10 K at 4° C. before use and protein quality was assessed by DLS.
# ITC experiments were performed using an iTC200 or a PEAQ-ITC instrument (Microcal Malvern Panalytical). Peptides (300 or 600 µM) were titrated at 25° C. by sequential injections (usually 2 µl each) into an SC solution (30 or 60 µM). Data were corrected for heat of injection by subtracting the signal of the titration of peptides into proteiN-free buffer solution (Hepes 10 mM pH 7.4, NaCl 0.15 M, EDTA 3 mM). Each titration was performed at least twice. Analyses of experimental data were performed following a classical treatment with the AFFINImeter software (https://www.affinimeter.com; S4S, Santiago de Compostela, Spain). In addition, kinetic information was obtained in some cases with kinITC as implemented in the software AFFINImeter.
# All newly synthesized peptides were tested for their interaction with ^EcSC by ITC at 25° C. As a general rule, all thermodynamic profiles reveal an exothermic interaction, and a non-favorable entropic component. The resulting negative Gibb’s free energies characterize a spontaneous interaction. The analysis of raw data by the Affinimeter® software also gave access to kinetics rate constant of the interaction.
# T1 sequence (P0A988 whole entry): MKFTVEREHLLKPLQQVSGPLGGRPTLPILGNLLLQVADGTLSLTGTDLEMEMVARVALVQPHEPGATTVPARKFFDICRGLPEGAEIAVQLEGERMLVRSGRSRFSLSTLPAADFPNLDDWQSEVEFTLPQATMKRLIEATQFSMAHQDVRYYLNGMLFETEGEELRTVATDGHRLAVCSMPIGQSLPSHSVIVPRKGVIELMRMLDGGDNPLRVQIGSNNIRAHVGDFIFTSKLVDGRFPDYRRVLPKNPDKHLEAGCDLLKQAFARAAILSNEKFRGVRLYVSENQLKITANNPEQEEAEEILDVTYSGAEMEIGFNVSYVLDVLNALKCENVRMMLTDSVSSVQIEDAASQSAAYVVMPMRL
Structure (SMILES),ΔG (kcal mol^-1),Kd [nM],kon [M⁻¹ s⁻¹]
"COc1ccc(NC(=O)N[C@@H](CCC(N)=O)C(=O)N[C@@H](CC2CCCCC2)C(=O)N(C)[C@@H](CC(=O)O)C(=O)N[C@@H](CC(C)C)C(=O)N[C@@H](Cc2ccc(Cl)c(Cl)c2)C(=O)O)cc1 [P39] ({NH(4-MeO-phenyl)-CO}-Q[Cha][NMeD]L[Phe(3,4-Cl2)]-OH)",-9.0 (± 0.01) kcal mol^-1,266,42000
"CC(=O)N[C@@H](CCC(N)=O)C(=O)N[C@@H](CC1CCCCC1)C(=O)N(C)[C@@H](CC(=O)O)C(=O)N[C@@H](CC(C)C)C(=O)N[C@@H](Cc1ccc(F)c(F)c1)C(=O)O [P40] (Ac-Q[Cha][NMeD]L[Phe(3,4-F2)]-OH)",-9.3 (± 0.02) kcal mol^-1,148,56000
"CC(C)C[C@H](NC(=O)[C@H](CC(=O)O)N(C)C(=O)[C@H](CC1CCCCC1)NC(=O)[C@H](CCC(N)=O)NC(=O)/C=C/c1ccc(F)cc1)C(=O)N[C@@H](Cc1ccc(F)c(F)c1)C(=O)O [P41] ({Cinnamoyl(4-F)}-Q[Cha][NMeD]L[Phe(3,4-F2)]-OH)",,99,51000
CC(=O)N[C@@H](CCC(N)=O)C(=O)N[C@@H](CC1CCCCC1)C(=O)N(C)[C@@H](CC(=O)O)C(=O)N[C@@H](CC(C)C)C(=O)N1CCC[C@H]1C(=O)N[C@@H](CC(C)C)C(=O)O [P42] (Ac-Q[Cha][NMeD]LPL-OH),-9.0 (± 0.2) kcal mol^-1,263,100000
CC(C)C[C@H](NC(=O)[C@@H]1CCCN1C(=O)[C@H](CC(C)C)NC(=O)[C@H](CC(=O)O)NC(=O)[C@H](CC1CCCCC1)NC(=O)[C@H](CCC(N)=O)NC(=O)/C=C/c1ccccc1)C(=O)O [P43] (X6-Q[Cha]DLPL-OH),,132,60000
"CC(C)C[C@H](NC(=O)[C@@H]1CCCN1C(=O)[C@H](CC(C)C)NC(=O)[C@H](CC(=O)O)N(C)C(=O)[C@H](CC1CCCCC1)NC(=O)[C@H](CCC(N)=O)NC(=O)/C=C/c1cccnc1)C(=O)O [P44] ({Acryloyl(3-(3-pyridyl),E)}-Q[Cha][NMeD]LPL-OH)",-9.2 (± 0.1) kcal mol^-1,177,63000
CC(=O)N[C@@H](CCC(N)=O)C(=O)N[C@@H](CC1CCCCC1)C(=O)N(C)[C@@H](CC(=O)O)C(=O)N[C@@H](CC(C)C)C(=O)N1CCC[C@H]1C(=O)N[C@@H](Cc1ccccc1)C(=O)O [P45] (Ac-Q[Cha][NMeD]LPF-OH),-9.7 (± 0.2) kcal mol^-1,81,60000
"CC(C)C[C@H](NC(=O)[C@H](CC(=O)O)N(C)C(=O)[C@H](CC1CCCCC1)NC(=O)[C@H](CCC(N)=O)NC(=O)/C=C/c1cccnc1)C(=O)N1CCC[C@H]1C(=O)N[C@@H](Cc1ccccc1)C(=O)O [P46] ({Acryloyl(3-(3-pyridyl),E)}-Q[Cha][NMeD]LPF-OH)",-10.2 (± 0.1) kcal mol^-1,36,140000
CC(=O)N[C@@H](CCC(N)=O)C(=O)N[C@@H](CC1CCCCC1)C(=O)N[C@@H](CC(=O)O)C(=O)N[C@@H](CC(C)C)C(=O)N1C(C(=O)N[C@@H](CC(C)C)C(=O)O)CC2CCCCC21 (stereo partly drawn) [P47] (Ac-Q[Cha]DL[ξOic]L-OH),,,71000
CC(=O)N[C@@H](CCC(N)=O)C(=O)N[C@@H](CC1CCCCC1)C(=O)N[C@@H](CC(=O)O)C(=O)N[C@@H](CC(C)C)C(=O)N1[C@H](C(=O)N[C@@H](Cc2ccccc2)C(=O)O)C[C@@H]2CCCC[C@@H]21 [P48] (Ac-Q[Cha]DL[Oic]F-OH),-9.5 (± 0.3) kcal mol^-1,120,55000
"CC(C)C[C@H](NC(=O)[C@H](CC(=O)O)N(C)C(=O)[C@H](CC1CCCCC1)NC(=O)[C@H](CCC(N)=O)NC(=O)/C=C/c1cccnc1)C(=O)N1[C@H](C(=O)N[C@@H](Cc2ccccc2)C(=O)O)C[C@@H]2CCCC[C@@H]21 [P49] ({Acryloyl(3-(3-pyridyl),E)}-Q[Cha][NMeD]L[Oic]F-OH)",-9.5 (± 0.1) kcal mol^-1,118,47000
